Experimental findings from the supplement of paper PMC10307832 are described below.

What all share (assay): relative viability (nuclei count vs DMSO), 5 days (fraction); higher = more cells survive
Compound in the assay “CX-5461 + Bortezomib”: Cc1cnc(CNC(=O)c2c(=O)c3ccc(N4CCCN(C)CC4)nc3n3c2sc2ccccc23)cn1 [CX-5461] + CC(C)C[C@H](NC(=O)[C@H](Cc1ccccc1)NC(=O)c1cnccn1)B(O)O [Bortezomib] (partner 0.002 µM)
The method in brief: (§1)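 Relative viability divides the nuclei count in treated wells by that in vehicle wells. Lung cancer cell lines were seeded in 1536-well plates, dosed by pin tool the next day, and fixed and stained after 5 days in one step with final 0.05% Triton X-100, 1% formaldehyde and 1 ug/ml Hoechst. Dosing was a single drug or a fixed anchor-drug dose plus five library-drug doses (not always all listed) in √10 steps, and values are medians of duplicate plates imaged at 4×.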

Compound in the assay “IMD-0354 + Phenformin”: O=C(Nc1cc(C(F)(F)F)cc(C(F)(F)F)c1)c1cc(Cl)ccc1O [IMD-0354] + N=C(N)NC(=N)NCCc1ccccc1 [Phenformin] (partner 250 µM)
The method in brief:
as §1

Compound in the assay “CX-5461 + Navitoclax”: Cc1cnc(CNC(=O)c2c(=O)c3ccc(N4CCCN(C)CC4)nc3n3c2sc2ccccc23)cn1 [CX-5461] + CC1(C)CCC(c2ccc(Cl)cc2)=C(CN2CCN(c3ccc(C(=O)NS(=O)(=O)c4ccc(N[C@H](CCN5CCOCC5)CSc5ccccc5)c(S(=O)(=O)C(F)(F)F)c4)cc3)CC2)C1 [Navitoclax] (partner 0.5 µM)
In outline: as §1

Compound in the assay “CX-5461 + Pemetrexed”: Cc1cnc(CNC(=O)c2c(=O)c3ccc(N4CCCN(C)CC4)nc3n3c2sc2ccccc23)cn1 [CX-5461] + Nc1nc2[nH]cc(CCc3ccc(C(=O)N[C@@H](CCC(=O)O)C(=O)O)cc3)c2c(=O)[nH]1 [Pemetrexed] (partner 0.2 µM)
In outline: as §1

On to NCI-H1975, for which the relative viability came out at 0.361 with CX-5461 + Bortezomib (first compound 0.01 µM); 0.357 with CX-5461 + Bortezomib (first compound 0.03162 µM); 0.357 with CX-5461 + Bortezomib (first compound 0.1 µM); 0.358 with CX-5461 + Bortezomib (first compound 0.3162 µM); 0.154 with CX-5461 + Bortezomib (first compound 1 µM); 0.402 in the assay with IMD-0354 + Phenformin (first compound 0.04 µM). Moreover, the relative viability with IMD-0354 + Phenformin (first compound 0.1265 µM) is 0.362; with IMD-0354 + Phenformin (first compound 0.4 µM) it was 0.201; in the assay with IMD-0354 + Phenformin (first compound 1.265 µM), 0.139; with IMD-0354 + Phenformin (first compound 4 µM), 0.124; in the assay with CX-5461 + Navitoclax (first compound 0.01 µM), 1.29; with CX-5461 + Navitoclax (first compound 0.03162 µM), 1.1. For the same cell line, the relative viability turned out to be 1.09 in the assay with CX-5461 + Navitoclax (first compound 0.1 µM); 1.25 with CX-5461 + Navitoclax (first compound 0.3162 µM); 0.871 with CX-5461 + Navitoclax (first compound 1 µM); 0.286 with CX-5461 + Pemetrexed (first compound 0.01 µM); 0.296 with CX-5461 + Pemetrexed (first compound 0.03162 µM); 0.274 with CX-5461 + Pemetrexed (first compound 0.1 µM). Also, the relative viability in the assay with CX-5461 + Pemetrexed (first compound 0.3162 µM) worked out at 0.331; in the assay with CX-5461 + Pemetrexed (first compound 1 µM) it was 0.264.
Take NCI-H1993: the relative viability was found to be 1.09 with CX-5461 + Bortezomib (first compound 0.01 µM); 1.18 with CX-5461 + Bortezomib (first compound 0.03162 µM); 1.14 in the assay with CX-5461 + Bortezomib (first compound 0.1 µM); 0.944 in the assay with CX-5461 + Bortezomib (first compound 0.3162 µM); 0.937 in the assay with CX-5461 + Bortezomib (first compound 1 µM); 0.48 with IMD-0354 + Phenformin (first compound 0.04 µM). The relative viability with IMD-0354 + Phenformin (first compound 0.1265 µM) is 0.495; with IMD-0354 + Phenformin (first compound 0.4 µM), 0.438; with IMD-0354 + Phenformin (first compound 1.265 µM), 0.465; with IMD-0354 + Phenformin (first compound 4 µM), 0.524; with CX-5461 + Navitoclax (first compound 0.01 µM) it was 0.946; in the assay with CX-5461 + Navitoclax (first compound 0.03162 µM) it was 1. Further, the relative viability with CX-5461 + Navitoclax (first compound 0.1 µM) came out at 0.887; in the assay with CX-5461 + Navitoclax (first compound 0.3162 µM) it was 0.871; with CX-5461 + Navitoclax (first compound 1 µM), 0.922; in the assay with CX-5461 + Pemetrexed (first compound 0.01 µM), 0.529; with CX-5461 + Pemetrexed (first compound 0.03162 µM), 0.67; with CX-5461 + Pemetrexed (first compound 0.1 µM), 0.582. The relative viability with CX-5461 + Pemetrexed (first compound 0.3162 µM) came to 0.587; in the assay with CX-5461 + Pemetrexed (first compound 1 µM) it was 0.625.
For the cell line NCI-H2009, the relative viability with CX-5461 + Bortezomib (first compound 0.01 µM) came out at 1.05; with CX-5461 + Bortezomib (first compound 0.03162 µM), 1.08; with CX-5461 + Bortezomib (first compound 0.1 µM), 0.644; with CX-5461 + Bortezomib (first compound 0.3162 µM), 0.867; in the assay with CX-5461 + Bortezomib (first compound 1 µM), 0.492; with IMD-0354 + Phenformin (first compound 0.04 µM), 0.502. Moreover, the relative viability with IMD-0354 + Phenformin (first compound 0.1265 µM) is 0.324; in the assay with IMD-0354 + Phenformin (first compound 0.4 µM), 0.228; with IMD-0354 + Phenformin (first compound 1.265 µM), 0.137; with IMD-0354 + Phenformin (first compound 4 µM), 0.15; with CX-5461 + Navitoclax (first compound 0.01 µM) it was 1.18; in the assay with CX-5461 + Navitoclax (first compound 0.03162 µM) it was 1.19. Besides, the relative viability in the assay with CX-5461 + Navitoclax (first compound 0.1 µM) was determined as 1.08; with CX-5461 + Navitoclax (first compound 0.3162 µM), 1.18; with CX-5461 + Navitoclax (first compound 1 µM) it was 0.765; in the assay with CX-5461 + Pemetrexed (first compound 0.01 µM), 1.01; in the assay with CX-5461 + Pemetrexed (first compound 0.03162 µM) it was 1.07; with CX-5461 + Pemetrexed (first compound 0.1 µM) it was 0.964. In addition, the results for the relative viability with CX-5461 + Pemetrexed (first compound 0.3162 µM) and with CX-5461 + Pemetrexed (first compound 1 µM) were 1.01 and 0.826, respectively.
Consider NCI-H2023, for which the relative viability came to 1.04 in the assay with CX-5461 + Bortezomib (first compound 0.01 µM); 0.825 in the assay with CX-5461 + Bortezomib (first compound 0.03162 µM); 0.52 in the assay with CX-5461 + Bortezomib (first compound 0.3162 µM); 0.0872 with CX-5461 + Bortezomib (first compound 1 µM); 0.446 in the assay with IMD-0354 + Phenformin (first compound 0.04 µM); 0.409 with IMD-0354 + Phenformin (first compound 0.1265 µM). The relative viability with IMD-0354 + Phenformin (first compound 0.4 µM) came to 0.223; with IMD-0354 + Phenformin (first compound 1.265 µM), 0.109; with IMD-0354 + Phenformin (first compound 4 µM) it was 0.147; in the assay with CX-5461 + Navitoclax (first compound 0.01 µM), 1.01; with CX-5461 + Navitoclax (first compound 0.03162 µM), 1.03; in the assay with CX-5461 + Navitoclax (first compound 0.3162 µM), 0.908. For the same cell line, the relative viability with CX-5461 + Navitoclax (first compound 1 µM) turned out to be 0.152; with CX-5461 + Pemetrexed (first compound 0.01 µM), 0.218; with CX-5461 + Pemetrexed (first compound 0.03162 µM) it was 0.246; with CX-5461 + Pemetrexed (first compound 0.3162 µM) it was 0.19; with CX-5461 + Pemetrexed (first compound 1 µM), 0.111.
